Assay results taken from ChEMBL document CHEMBL3217449 (Medchemcomm, 2010).
Values after ≈ are worked out from the molar mass of the structure shown.

What was measured:
[1] = Metabolic stability in human liver microsomes assessed as extraction ratio; type: ADME; settings: read-out: ERH
[2] = Kinetic solubility of the compound; type: physicochemical; settings: read-out: Kinetic_solubility
[3] = biological target: Phosphatidylinositol 4,5-bisphosphate 3-kinase catalytic subunit alpha isoform (Mus musculus, UniProt P42337); test: Inhibition of mouse PI3K alpha expressed in insect cells coexpressing p85 subunit assessed as PI(3,4,5)P3 formation using PI(4,5)P2 as substrate by measuring displacement of TAMRA-labeled PI(3,4,5)P3 from Grip1 PH domain after 35 mins by ligand displacement fluorescence polarization assay
[4] = biological target: Serine/threonine-protein kinase mTOR (Homo sapiens, UniProt P42345)
[5] = Inhibition of AKT phosphorylation at S473 in human BT20 cells after 1 hr by sandwich ELISA; type: cell-based; settings: BT-20, 1 h
[6] = Drug absorption in rat; type: ADME, organism-based; settings: in vivo, read-out: Drug absorption
[7] = Inhibition of AKT phosphorylation at S473 in human SKOV3 cells after 1 hr by sandwich ELISA; type: cell-based; settings: SK-OV-3, 1 h
[8] = Clearance in rat at 2 mg/kg, iv and 5 mg/kg, po by LC-MS/MS analysis; type: ADME, organism-based; settings: in vivo
[9] = test system: Rattus norvegicus; test: Unbound clearance in rat at 2 mg/kg, iv and 5 mg/kg, po by LC-MS/MS analysis; type: ADME, organism-based; settings: in vivo
[10] = Volume of distribution at steady state in rat at 2 mg/kg, iv and 5 mg/kg, po by LC-MS/MS analysis; type: ADME, organism-based; settings: in vivo, read-out: Vdss
[11] = Half life in rat at 2 mg/kg, iv and 5 mg/kg, po by LC-MS/MS analysis; type: ADME, organism-based; settings: in vivo
[12] = Unbound fraction in rat plasma at 2 mg/kg, iv and 5 mg/kg, po by LC-MS/MS analysis; type: ADME, organism-based
[13] = test system: Rattus norvegicus; test: Drug metabolism in iv dosed rat plasma assessed as 2-amino-8-((cis)-4-hydroxycyclohexyl)-6-(6-methoxypyridin-3-yl)-4-methylpyrido[2,3-d]pyrimidin-7(8H)-one level; type: ADME, organism-based; settings: in vivo
[14] = test system: Mus musculus; test: Drug metabolism in po dosed mouse plasma assessed as 2-amino-8-((cis)-4-hydroxycyclohexyl)-6-(6-methoxypyridin-3-yl)-4-methylpyrido[2,3-d]pyrimidin-7(8H)-one level; type: ADME, organism-based; settings: in vivo
[15] = test system: Rattus norvegicus; test: Drug metabolism in iv dosed rat plasma assessed as 2-amino-8-((trans)-4-hydroxycyclohexyl)-6-(6-methoxypyridin-3-yl)-4-methylpyrido[2,3-d]pyrimidin-7(8H)-one level; type: ADME, organism-based; settings: in vivo
[16] = test system: Mus musculus; test: Drug metabolism in po dosed mouse plasma assessed as 2-amino-8-((trans)-4-hydroxycyclohexyl)-6-(6-methoxypyridin-3-yl)-4-methylpyrido[2,3-d]pyrimidin-7(8H)-one level; type: ADME, organism-based; settings: in vivo

Chain of Phosphatidylinositol 4,5-bisphosphate 3-kinase catalytic subunit alpha isoform (P42337 whole entry, the tested form may be a part, canonical isoform): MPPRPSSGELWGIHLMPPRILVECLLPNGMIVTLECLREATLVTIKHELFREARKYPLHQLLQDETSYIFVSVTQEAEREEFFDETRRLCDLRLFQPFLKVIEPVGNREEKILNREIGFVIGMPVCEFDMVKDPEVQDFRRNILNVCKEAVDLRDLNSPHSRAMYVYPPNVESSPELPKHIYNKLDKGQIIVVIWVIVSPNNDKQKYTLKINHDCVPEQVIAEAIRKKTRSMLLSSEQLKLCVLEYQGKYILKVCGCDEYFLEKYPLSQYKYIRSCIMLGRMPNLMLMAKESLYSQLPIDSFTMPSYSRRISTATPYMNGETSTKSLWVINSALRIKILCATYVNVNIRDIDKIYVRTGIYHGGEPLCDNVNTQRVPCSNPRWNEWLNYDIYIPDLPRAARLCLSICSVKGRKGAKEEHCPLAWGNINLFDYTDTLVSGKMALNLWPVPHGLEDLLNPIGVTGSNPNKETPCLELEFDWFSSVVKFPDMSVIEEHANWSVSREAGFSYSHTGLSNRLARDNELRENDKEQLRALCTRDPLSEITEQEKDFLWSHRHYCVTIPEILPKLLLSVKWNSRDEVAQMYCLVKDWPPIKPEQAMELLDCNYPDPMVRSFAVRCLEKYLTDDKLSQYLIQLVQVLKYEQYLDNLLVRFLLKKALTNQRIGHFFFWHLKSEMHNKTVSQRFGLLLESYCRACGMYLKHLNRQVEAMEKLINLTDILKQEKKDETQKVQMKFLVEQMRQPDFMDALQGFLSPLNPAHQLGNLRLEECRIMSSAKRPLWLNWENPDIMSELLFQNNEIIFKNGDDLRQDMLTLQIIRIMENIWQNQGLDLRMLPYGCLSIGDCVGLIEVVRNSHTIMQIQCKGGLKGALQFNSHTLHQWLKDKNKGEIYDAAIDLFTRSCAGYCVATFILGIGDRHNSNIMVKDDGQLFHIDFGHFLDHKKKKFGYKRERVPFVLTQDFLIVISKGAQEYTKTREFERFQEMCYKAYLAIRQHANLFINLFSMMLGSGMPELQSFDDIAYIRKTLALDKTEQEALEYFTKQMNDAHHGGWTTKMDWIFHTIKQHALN

Structure (SMILES)	hepatic extraction ratio [1]	solubility kinetic [2] [µM]	Ki [3] [µM]	Ki [4] [µM]	IC50 [5] [µM]	also measured
COc1ccc(-c2cc3c(C)nc(N)nc3n(C3CCOC3)c2=O)cn1 (stereo not given)	< 0.26	144 (≈ 50.9 µg/mL)	0.0066	0.15		
COc1ccc(-c2cc3c(C)nc(N)nc3n(C3CCOCC3)c2=O)cn1	< 0.26	40 (≈ 14.7 µg/mL)	0.0036	0.11		
COc1ccc(-c2cc3c(C)nc(N)nc3n(C3CCCC3)c2=O)cn1	< 0.25	3.9 (≈ 1.37 µg/mL)	0.0014	0.2	0.016	Fa [6]: 28%
Cc1nc(N)nc2c1cc(-c1cccc(CO)c1)c(=O)n2C1CCCC1			0.0012	0.082		
COc1ccc(-c2cc3c(C)nc(N)nc3n([C@H]3CC[C@H](OCCO)CC3)c2=O)cn1 [PF-04691502]		14 (≈ 5.96 µg/mL)			0.013	IC50 [7]: 0.0074 µM; clearance [8]: 5.2 mL/min/kg; CL free [9]: 25.9 mL/min/kg; Vd [10]: 1.39 L/kg; half-life [11]: 3.1 h; fraction unbound [12]: 0.202
CNc1nc(C)c2cc(-c3cccc(CO)c3)c(=O)n(C3CCCC3)c2n1	0.68	65 (≈ 23.7 µg/mL)	0.0014	0.84	0.015	
COc1ccc(-c2cc3c(C)nc(N)nc3n([C@H]3CC[C@H](O)CC3)c2=O)cn1	< 0.25	16 (≈ 6.1 µg/mL)	0.0009	0.017	0.012	Stability [13]: Unstable; Stability [14]: Unstable
CNc1nc(C)c2cc(-c3ccc(OC)nc3)c(=O)n(C3CCCC3)c2n1			0.0011	0.7		
COc1ccc(-c2cc3c(C)nc(N)nc3n([C@H]3CC[C@@H](O)CC3)c2=O)cn1	< 0.26	60 (≈ 22.9 µg/mL)	0.003	0.09	0.022	Stability [15]: Unstable; Stability [16]: Unstable
